Like-named read-outs stand apart in the source and are kept apart here.
How the values were obtained:
[1] = at 25° C.; cited from earlier work
HL-60 cells = experiment: AlamarBlue cell growth inhibition, HL-60; assay type: cell-based; details: Homo sapiens; for IC50: 120 h, HL-60, five days; for EC50: HL-60, 120 h, HL60 (Bcl-2 +, BTK +), 5 days, read-out: Inhibitory effects (EC50)
Description: (§1) K-562 cells (human leukemia) were purchased from ATCC (Manassas, USA). Additional human leukemic cell lines, MOLT-4 and HL-60, were a generous gift from Carrie Cummings at Fred Hutchinson Cancer Research Center (Seattle, USA). All cells were cultured in Gibco RPMI medium 1640 with Gibco 1% 100×Antibiotic-Antimycotic (Thermo Fisher Scientific, Waltham, USA) and 10% fetal bovine serum. Cells were selected for their different protein expression levels of Bruton's Tyrosine Kinase (BTK) and B Cell Lymphoma 2 (Bcl-2); HL-60 cells express both BTK and Bcl-2, while K-562 and MOLT-4 cells only express BTK and Bcl-2, respectively.
(§2) Each cell line was seeded separately into Costar® Black 96-well Assay Plates (Corning USA). Within 1 hr, varying concentrations of individual free drug (ABT-199 or BGB-3111), a combination of both free drugs (w/w 1:1), or a combination of drugs within DcNP's were added to the cells. Following a 5-day incubation, growth of treated cells was compared to untreated cells, quantified using an AlamarBlue Cell Viability Assay (Thermo Fisher Scientific, Waltham, USA) with a PerkinElmer 1420 Multilabel Counter plate reader. Prism graphing software (GraphPad) was used to analyze the absorbance data and to assess relative cell growth.
(§3) The effects of DcNP formulation on the effectiveness of ABT-199 and BGB-3111 to inhibit cells that express Bcl-2 and BTK targets is shown in Table 6. Three immortalized human cell lines were selected based on their expression of Bcl-2 (B-cell lymphoma 2; target of venetoclax) and BTK (Bruton's tyrosine kinase; target of zanubrutinib). Cell lines were seeded in 96-well plates at 75,000 cells per well. In separate sets of wells, venetoclax and zanubrutinib were incubated with the cells for 5 days individually as free drug, together as free drug, and together as the drug combination nanoformulation. An AlamarBlue assay was performed to determine relative inhibition of cell growth due to drug presence.

[2] = Association efficiency of venetoclax and zanubrutinib with DcNP's by dialysis; assay type: physicochemical
Description: 85.4 mg DSPC, 33.6 mg DSPE-mPEG2000, 9.6 mg ABT-199, and 9.6 mg BGB-3111 were dissolved in 4 mL pre-warmed 70° C. tert-butyl alcohol. The solution was thoroughly mixed, lyophilized over 24 hrs, and reconstituted in 0.9% NaCl, 20 mM NaHCO3 buffer with trace TWEEN® 20. The resulting drug-combination, stabilized by lipid excipients and referred to as drug combination nanoparticle or DcNP's, were then filtered through an Acrodisc® CR syringe filter (0.2 μm PTFE Membrane, HPLC certified) and diluted with buffer solution to the desired concentration. Particle size was quantified using a NICOMP 380 ZLS (Zeta Potential/Particle Sizer). The extent of ABT-199 and BGB-3111 association with the DcNP particles in solution was analyzed via dialysis (6,000-8,000 molecular weight cutoff) under sink conditions; sink condition was achieved by dialyzing 200 μl of DcNP suspension against 200 mL buffer solution (1,000-fold volume change) for 4 hrs. The drug association efficiency (AE %) was determined by comparing the pre- and post-dialysis drug concentration ratios of each drug. Drug concentration was determined by the extraction drug in suspension and analyzed based on a LC-MS/MS assay as described below.
Following initial rehydration and without any sonication, particle size of the DcNP's with and without TWEEN20 was measured using the Zetasizer (FIG. 10). […] Without Tween20, DcNP size was primarily 39 nm in diameter (92%) with less than 8% of particles measuring 870 nm in diameter (FIG. 10). Particle size was determined via dynamic light scattering, and association efficiency (FIG. 11) is a normalized mass/mass ratio calculated by comparing amount of drug remaining associated with DcNP's compared to the overall amount of drug used to create the particles.

[3] = cited from earlier work
MOLT-4 cells [4] = experiment: Leukemic cell uptake of free versus DcNP-associated drug, MOLT-4; assay type: cell-based, human
Description: FIGS. 13A-13D are a series of graphs showing the intracellular drug concentrations following incubation with free or DcNP-bound drug. Three leukemic cell lines were incubated with either free or DcNP-bound drug over four hours, and intracellular drug concentration was measured via LC-MS/MS. Both free drugs show relatively little drug uptake compared to the DcNP formulation. Free drug concentrations are roughly a quarter of the DcNP drug concentrations.
To quantify drug concentrations (both DcNP-bound and free drug), an extraction protocol was established to quantify venetoclax and zanubrutinib. In short, drug was solubilized by diluting the sample into ethyl acetate, liberating it from either the DcNP lipid matrix, mouse plasma, or both. Following centrifugation to remove organic material, the samples were dried with nitrogen gas, reconstituted in acetonitrile, and loaded onto an LC-MS/MS. Drug concentrations were quantified by comparing sample data with standard curves prepared from untreated mouse plasma spiked with known amounts of drug.
Separations were carried out on a Synergi column (100×2.0 mm) (Phenomenex, Torrance, USA). A C8 guard column (4.0×2.0 mm) was used (Phenomenex, USA). The separations were done under ambient temperature, and the flow rate was set to 0.55 ml/min. The mobile phase for the separations consisted of buffers A (water with 20 mM ammonium acetate) and B (acetonitrile). The single mobile phase ran for five minutes, and it consisted of 25% buffer A and 75% buffer B.
HL-60 cells were cultured, counted, and aliquoted into multiple 1.5 mL Eppendorf tubes. A free drug solution of ABT-199 and BGB-3111 (1:1 w/w) was added to half of the tubes, while a DcNP solution of identical drug concentrations was added to the second half of tubes. The cells in the tubes were then allowed to incubate normally. At preselected time points, one incubation tube from each group was removed from the incubator, and the cells inside were washed twice with media to remove external drug and DcNP's. Cells were then lysed with acetonitrile, and drug concentrations were quantified according to the aforementioned extraction and LC-MS/MS protocol.

MOLT-4 cells [5] = experiment: AlamarBlue cell growth inhibition, MOLT-4; assay type: cell-based; details: Homo sapiens, 120 h; for IC50: MOLT-4, five days, read-out: IC50 (sensitivity); for EC50: Molt-4 (Bcl-2 +, BTK −), 5 days, read-out: Inhibitory effects (EC50)
Description: as §1, §2, §3

[6] = MOLT-4, incubation with free drug

## C=CC(=O)N1CCC([C@@H]2CCNc3c(C(N)=O)c(-c4ccc(Oc5ccccc5)cc4)nn32)CC1 [Zanubrutinib, (7S)-2-(4-phenoxyphenyl)-7-(1-prop-2-enoylpiperidin-4-yl)-4,5,6,7-tetrahydropyrazolo[1,5-a]pyrimidine-3-carboxamide]
[1]
  Water solubility: 10.3 µg/mL
HL-60 cells; read-out: IC50 (sensitivity)
  IC50: 10.3 µg/mL
HL-60 cells
  EC50: 10 µg/mL
[2]; with TWEEN20, day 1
  AE % (association efficiency with the DcNP lipid platform): 98.52%
[2]; with TWEEN20, day 70
  AE % (association efficiency with the DcNP lipid platform): 93.05%
[2]; without TWEEN20, day 1
  AE % (association efficiency with the DcNP lipid platform): 99.99%
[2]; without TWEEN20, day 70
  AE % (association efficiency with the DcNP lipid platform): 95.50%
[3]
  log P: 3.5
MOLT-4 cells [4]; MOLT-4, incubation with DcNP's
  peak intracellular drug concentration: 208 ng/million cells
MOLT-4 cells [4]; [6]
  peak intracellular drug concentration: 42 ng/million cells
MOLT-4 cells [5]
  IC50: 4 µg/mL
  EC50: 4 µg/mL

## CC1(C)CCC(CN2CCN(c3ccc(C(=O)NS(=O)(=O)c4ccc(NCC5CCOCC5)c([N+](=O)[O-])c4)c(Oc4cnc5[nH]ccc5c4)c3)CC2)=C(c2ccc(Cl)cc2)C1 [Venetoclax, 4-[4-[[2-(4-chlorophenyl)-4,4-dimethylcyclohexen-1-yl]methyl]piperazin-1-yl]-N-[3-nitro-4-(oxan-4-ylmethylamino)phenyl]sulfonyl-2-(1H-pyrrolo[2,3-b]pyridin-5-yloxy)benzamide]
[1]
  Water solubility: 0.933 µg/mL
HL-60 cells; read-out: IC50
  IC50: 0.00192 µg/mL
HL-60 cells
  EC50: 0.0019 µg/mL
[2]; with TWEEN20, day 1
  AE % (association efficiency with the DcNP lipid platform): 100%
[2]; with TWEEN20, day 70
  AE % (association efficiency with the DcNP lipid platform): 99.91%
[2]; without TWEEN20, day 1
  AE % (association efficiency with the DcNP lipid platform): 100%
[2]; without TWEEN20, day 70
  AE % (association efficiency with the DcNP lipid platform): 100%
[3]
  log P: 6.92
MOLT-4 cells [4]; MOLT-4, incubation with DcNP's
  peak intracellular drug concentration: 718 ng/million cells
MOLT-4 cells [4]; [6]
  peak intracellular drug concentration: 176 ng/million cells
MOLT-4 cells [5]
  IC50: 1.96 µg/mL
  EC50: 2 µg/mL

From patent US20230113802A1, “COMPOSITION AND METHOD TO PREPARE LONG-ACTING INJECTABLE SUSPENSION CONTAINING MULTIPLE CANCER DRUGS” (University of Washington, priority 2020, published 2023)
